# From ChEMBL document CHEMBL5390201, “The Natural Alkaloid (-)-N-Hydroxyapiosporamide Suppresses Colorectal Tumor Progression as an NF-κB Pathway Inhibitor by Targeting the TAK1-TRAF6 Complex” (J Nat Prod, 2023)
# How the values were obtained:
# [1] = test system: HT-29; test: Cytotoxicity against human HT-29 cells assessed as decrease in cell viability incubated for 48 hrs by SRB assay; format: functional, cell-based; details: HT-29, 48 h
# [2] = Half life in ip dosed mouse; format: ADME, organism-based; details: in vivo
# [3] = test system: HCT-116; test: Cytotoxicity against human HCT-116 cells assessed as decrease in cell viability incubated for 48 hrs by SRB assay; format: functional, cell-based; details: HCT-116, 48 h
# [4] = test system: RKO; test: Cytotoxicity against human RKO cells assessed as decrease in cell viability incubated for 48 hrs by SRB assay; format: functional, cell-based
# [5] = test system: SW-620; test: Cytotoxicity against human SW620 cells assessed as decrease in cell viability incubated for 48 hrs by SRB assay; format: functional, cell-based; details: SW-620, 48 h
# [6] = test system: SW480; test: Cytotoxicity against human SW480 cells assessed as decrease in cell viability incubated for 48 hrs by SRB assay; format: functional, cell-based; details: SW480, 48 h
# [7] = test system: HCT-15; test: Cytotoxicity against human HCT-15 cells assessed as decrease in cell viability incubated for 48 hrs by SRB assay; format: functional, cell-based; details: HCT-15, 48 h
smiles,measurement,setting,value
O=c1[nH]cc(F)c(=O)[nH]1 [FLUOROURACIL],IC50,[1],12 µM
same,half-life,[2],1.36 h
same,IC50,[3],12 µM
same,IC50,[4],12 µM
same,IC50,[5],12 µM
same,IC50,[6],12 µM
same,IC50,[7],12 µM
